Reference: US20230085307A1, “PYRIDAZINONE COMPOUND AND HERBICIDE” (NISSAN CHEMICAL CORPORATION, priority 2019, published 2023)

How the values were obtained:
redroot pigweed [1] = assay: Test Example 4: herbicidal effect by soil treatment (Table 19, symbol N); assay type: in vivo, redroot pigweed (Amaranthus retroflexus); conditions: amount of applied herbicide 320 g/ha
Procedure, shortened: (§1)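 Herbicidal effect was rated 3 weeks after treatment, using the scoring criteria of an earlier test. The compound, formulated as an emulsion and diluted in water to a set herbicide amount, had been sprayed uniformly on soil over freshly sown seeds. Growth took place in a greenhouse at 25° C. to 30° C.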

barnyard grass [2] = assay: Test Example 5: herbicidal effect by foliage application, plastic box (Table 20, symbol H); assay type: in vivo, barnyard grass (Echinochloa crus-galli); conditions: 320 g/ha
Procedure, shortened: (§2)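 Foliar spray test: emulsion formulation diluted in water to a set application rate, sprayed onto 14-day-old plants raised in diluvial soil at 25° C to 30° C under glass. Both herbicidal effect and crop effect rated visually three weeks later.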

persian speedwell = assay: Test Example 5: herbicidal effect by foliage application, plastic box (Table 20, symbol R); assay type: in vivo, Persian speedwell (Veronica persica); conditions: foliage application, 320 g/ha, three weeks after application
Procedure, shortened: as §2

velvetleaf [3] = assay: Test Example 5: herbicidal effect by foliage application, plastic box (Table 20, symbol M); assay type: in vivo, velvetleaf (Abutilon theophrasti); conditions: 320 g/ha
Procedure, shortened: as §2

late watergrass [4] = assay: Test Example 1: herbicidal activity, application before weed generation under submerged conditions (Table 16, symbol A); assay type: in vivo, late watergrass (Echinochloa oryzicola); conditions: 320 g/ha applied herbicide
Procedure, shortened: (§3)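 Submerged Wagner pots (alluvial soil, 4 cm water) sown with weed seeds and planted with 2.5-leaf rice seedlings; emulsifiable concentrate diluted in water applied to water surface on sowing day. Held in greenhouse at 25-30 °C; injury scored 0-5 by herbicidal rate after three weeks.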

Italian ryegrass [5] = assay: Test Example 4: herbicidal effect by soil treatment (Table 19, symbol K); assay type: in vivo, Italian ryegrass (Lolium multiflorum); conditions: amount of applied herbicide 320 g/ha
Procedure, shortened: as §1

chickweed = assay: Test Example 5: herbicidal effect by foliage application, plastic box (Table 20, symbol P); assay type: in vivo, common chickweed (Stellaria media); conditions: foliage application, 320 g/ha, three weeks after application
Procedure, shortened: as §2

oval-leafed pondweed [6] = assay: Test Example 1: herbicidal activity, application before weed generation under submerged conditions (Table 16, symbol C); assay type: in vivo, oval-leafed pondweed (Monochoria vaginalis); conditions: 320 g/ha applied herbicide
Procedure, shortened: as §3

lambsquarters [7] = assay: Test Example 5: herbicidal effect by foliage application, plastic box (Table 20, symbol O); assay type: in vivo, lambsquarters (Chenopodium album); conditions: 320 g/ha
Procedure, shortened: as §2

barnyard grass [8] = assay: Test Example 3: herbicidal effect by foliage application, Wagner pot (Table 18, symbol H); assay type: in vivo, barnyard grass (Echinochloa crus-galli); conditions: 320 g/ha
Procedure, shortened: (§4)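 Plants were sown in alluvial soil held under 0.1–0.5 cm standing water and grown 14 days in a greenhouse at 25–30 °C. An emulsifiable formulation, water-diluted to the set dose, was then sprayed onto the foliage, and effects were scored three weeks later using previously defined criteria.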

Chinese sprangletop = assay: Test Example 3: herbicidal effect by foliage application, Wagner pot (Table 18, symbol D); assay type: in vivo, chinese sprangletop (Leptochloa chinensis); conditions: 320 g/ha
Procedure, shortened: as §4

Japanese bulrush [9] = assay: Test Example 1: herbicidal activity, application before weed generation under submerged conditions (Table 16, symbol B); assay type: in vivo, Japanese bulrush (Schoenoplectus juncoides); conditions: 320 g/ha applied herbicide
Procedure, shortened: as §3

redroot pigweed [10] = assay: Test Example 5: herbicidal effect by foliage application, plastic box (Table 20, symbol N); assay type: in vivo, redroot pigweed (Amaranthus retroflexus); conditions: 320 g/ha
Procedure, shortened: as §2

blackgrass [11] = assay: Test Example 4: herbicidal effect by soil treatment (Table 19, symbol J); assay type: in vivo, blackgrass (Alopecurus myosuroides); conditions: amount of applied herbicide 320 g/ha
Procedure, shortened: as §1

green foxtail [12] = assay: Test Example 5: herbicidal effect by foliage application, plastic box (Table 20, symbol G); assay type: in vivo, green foxtail (Setaria viridis); conditions: 320 g/ha
Procedure, shortened: as §2

oval-leafed pondweed [13] = assay: Test Example 2: herbicidal activity, application during weed generation under submerged conditions (Table 17, symbol C); assay type: in vivo, oval-leafed pondweed (Monochoria vaginalis); conditions: AAH 320 g/ha; application during weed generation, submerged conditions
Description: (§5) [Test Example 2] Herbicidal Activity Test by Application during Weed Generation under Submerged Conditions After alluvial soil was placed into 1/10000 are of Wagner pot, water was poured and mixed to form a submerged condition having a water depth of 4 cm. Seeds of late watergrass, Japanese bulrush, and oval-leafed pondweed were sowed in a mixed manner in the aforementioned pot, and the pot was placed in a greenhouse at 25° C. to 30° C. for growth of the plants. When late watergrass, Japanese bulrush, and oval-leafed pondweed were grown to one leaf stage to two leaf stage, the emulsion agent of the compound of the present invention prepared according to Formulation Example 2 was diluted with water so as to achieve a predetermined herbicide amount, and the diluted emulsion agent was applied to the surface of the water. Three weeks after the herbicide application, the effect of the herbicide on each plant was evaluated according to the criteria of Test Example 1.

green foxtail [14] = assay: Test Example 4: herbicidal effect by soil treatment (Table 19, symbol G); assay type: in vivo, green foxtail (Setaria viridis); conditions: amount of applied herbicide 320 g/ha
Procedure, shortened: as §1

windgrass = assay: Test Example 5: herbicidal effect by foliage application, plastic box (Table 20, symbol L); assay type: in vivo, windgrass (Apera spica-venti); conditions: foliage application, 320 g/ha, three weeks after application
Procedure, shortened: as §2

southern crabgrass [15] = assay: Test Example 5: herbicidal effect by foliage application, plastic box (Table 20, symbol F); assay type: in vivo, southern crabgrass (Digitaria ciliaris); conditions: 320 g/ha
Procedure, shortened: as §2

Japanese bulrush [16] = assay: Test Example 2: herbicidal activity, application during weed generation under submerged conditions (Table 17, symbol B); assay type: in vivo, Japanese bulrush (Schoenoplectus juncoides); conditions: AAH 320 g/ha; application during weed generation, submerged conditions
Description: as §5

barnyard grass [17] = assay: Test Example 4: herbicidal effect by soil treatment (Table 19, symbol H); assay type: in vivo, barnyard grass (Echinochloa crus-galli); conditions: amount of applied herbicide 320 g/ha
Procedure, shortened: as §1

rice flat sedge = assay: Test Example 3: herbicidal effect by foliage application, Wagner pot (Table 18, symbol E); assay type: in vivo, rice flat sedge (Cyperus iria); conditions: 320 g/ha
Procedure, shortened: as §4

wild oat [18] = assay: Test Example 5: herbicidal effect by foliage application, plastic box (Table 20, symbol I); assay type: in vivo, wild oat (Avena fatua); conditions: foliage application, 320 g/ha, three weeks after application
Procedure, shortened: as §2

southern crabgrass [19] = assay: Test Example 4: herbicidal effect by soil treatment (Table 19, symbol F); assay type: in vivo, southern crabgrass (Digitaria ciliaris); conditions: amount of applied herbicide 320 g/ha
Procedure, shortened: as §1

Italian ryegrass [20] = assay: Test Example 5: herbicidal effect by foliage application, plastic box (Table 20, symbol K); assay type: in vivo, Italian ryegrass (Lolium multiflorum); conditions: foliage application, 320 g/ha, three weeks after application
Procedure, shortened: as §2

blackgrass [21] = assay: Test Example 5: herbicidal effect by foliage application, plastic box (Table 20, symbol J); assay type: in vivo, blackgrass (Alopecurus myosuroides); conditions: foliage application, 320 g/ha, three weeks after application
Procedure, shortened: as §2

wild oat [22] = assay: Test Example 4: herbicidal effect by soil treatment (Table 19, symbol I); assay type: in vivo, wild oat (Avena fatua); conditions: amount of applied herbicide 320 g/ha
Procedure, shortened: as §1

velvetleaf [23] = assay: Test Example 4: herbicidal effect by soil treatment (Table 19, symbol M); assay type: in vivo, velvetleaf (Abutilon theophrasti); conditions: amount of applied herbicide 320 g/ha
Procedure, shortened: as §1

late watergrass [24] = assay: Test Example 2: herbicidal activity, application during weed generation under submerged conditions (Table 17, symbol A); assay type: in vivo, late watergrass (Echinochloa oryzicola); conditions: AAH 320 g/ha; application during weed generation, submerged conditions
Description: as §5

lambsquarters [25] = assay: Test Example 4: herbicidal effect by soil treatment (Table 19, symbol O); assay type: in vivo, lambsquarters (Chenopodium album); conditions: amount of applied herbicide 320 g/ha
Procedure, shortened: as §1

[26] = foliage application, three weeks after application
[27] = foliage application after 14-day growth, evaluated three weeks after application

CCOc1ccc(-c2sc3ccccc3c2-c2c(O)c(C)nn(C)c2=O)cc1 [1-013]
herbicidal effect rating, N: redroot pigweed (redroot pigweed [1]): 3 (Herbicidal rate of 40% or more and less than 70%)
herbicidal effect grade, H: barnyard grass (barnyard grass [2]; [26]): 4 (Herbicidal rate of 70% or more and less than 90%)
herbicidal effect grade, R: persian speedwell (persian speedwell): 5 (Herbicidal rate of 90% or more (almost completely withered))
herbicidal effect grade, M: velvetleaf (velvetleaf [3]; [26]): 5 (Herbicidal rate of 90% or more (almost completely withered))
Herbicidal effect on A: late watergrass (grade 0-5) (late watergrass [4]): 4 (Herbicidal rate of 70% or more and less than 90%)
herbicidal effect rating, K: Italian ryegrass (Italian ryegrass [5]): 0 (Herbicidal rate of 5% or less (almost no effect))
herbicidal effect grade, P: chickweed (chickweed): 5 (Herbicidal rate of 90% or more (almost completely withered))
Herbicidal effect on C: oval-leafed pondweed (grade 0-5) (oval-leafed pondweed [6]): 3 (Herbicidal rate of 40% or more and less than 70%)
herbicidal effect grade, O: lambsquarters (lambsquarters [7]; [26]): 3 (Herbicidal rate of 40% or more and less than 70%)
herbicidal effect on H (barnyard grass), rating 0-5 (barnyard grass [8]): 5 (Herbicidal rate of 90% or more (almost completely withered))
herbicidal effect on D (Chinese sprangletop), rating 0-5 (Chinese sprangletop): 1 (Herbicidal rate of 5% or more and less than 20%)
Herbicidal effect on B: Japanese bulrush (grade 0-5) (Japanese bulrush [9]): 4 (Herbicidal rate of 70% or more and less than 90%)
herbicidal effect grade, N: redroot pigweed (redroot pigweed [10]; [26]): 3 (Herbicidal rate of 40% or more and less than 70%)
herbicidal effect rating, J: blackgrass (blackgrass [11]): 0 (Herbicidal rate of 5% or less (almost no effect))
herbicidal effect grade, G: green foxtail (green foxtail [12]; [26]): 5 (Herbicidal rate of 90% or more (almost completely withered))
herbicidal effect rating, C: oval-leafed pondweed (oval-leafed pondweed [13]): 3 (Herbicidal rate of 40% or more and less than 70%)
herbicidal effect rating, G: green foxtail (green foxtail [14]): 5 (Herbicidal rate of 90% or more (almost completely withered))
herbicidal effect grade, L: windgrass (windgrass): 0 (Herbicidal rate of 5% or less (almost no effect))
herbicidal effect grade, F: southern crabgrass (southern crabgrass [15]; [26]): 0 (Herbicidal rate of 5% or less (almost no effect))
herbicidal effect rating, B: Japanese bulrush (Japanese bulrush [16]): 3 (Herbicidal rate of 40% or more and less than 70%)
herbicidal effect rating, H: barnyard grass (barnyard grass [17]): 4 (Herbicidal rate of 70% or more and less than 90%)
herbicidal effect on E (rice flat sedge), rating 0-5 (rice flat sedge): 5 (Herbicidal rate of 90% or more (almost completely withered))
herbicidal effect grade, I: wild oat (wild oat [18]): 0 (Herbicidal rate of 5% or less (almost no effect))
herbicidal effect rating, F: southern crabgrass (southern crabgrass [19]): 0 (Herbicidal rate of 5% or less (almost no effect))
herbicidal effect grade, K: Italian ryegrass (Italian ryegrass [20]): 3 (Herbicidal rate of 40% or more and less than 70%)
herbicidal effect grade, J: blackgrass (blackgrass [21]): 0 (Herbicidal rate of 5% or less (almost no effect))
herbicidal effect rating, I: wild oat (wild oat [22]): 0 (Herbicidal rate of 5% or less (almost no effect))
herbicidal effect rating, M: velvetleaf (velvetleaf [23]): 0 (Herbicidal rate of 5% or less (almost no effect))

COc1ccc2c(-c3c(O)c(C)nn(C)c3=O)c(-c3ccc(OC(F)(F)F)cc3)sc2c1 [3-170]
herbicidal effect rating, A: late watergrass (late watergrass [24]): 2 (Herbicidal rate of 20% or more and less than 40%)
Herbicidal effect by soil treatment, N: redroot pigweed (redroot pigweed [1]): 4 (Herbicidal rate of 70% or more and less than 90%)
herbicidal effect on H: barnyard grass (evaluation grade 0-5) (barnyard grass [2]; [27]): 0 (Herbicidal rate of 5% or less (almost no effect))
herbicidal effect on M: velvetleaf (evaluation grade 0-5) (velvetleaf [3]; [27]): 3 (Herbicidal rate of 40% or more and less than 70%)
herbicidal effect on O: lambsquarters (evaluation grade 0-5) (lambsquarters [7]; [27]): 5 (Herbicidal rate of 90% or more (almost completely withered))
herbicidal effect on barnyard grass (H) (barnyard grass [8]): 3 (Herbicidal rate of 40% or more and less than 70%)
herbicidal effect on Chinese sprangletop (D) (Chinese sprangletop): 0 (Herbicidal rate of 5% or less (almost no effect))
Herbicidal effect by soil treatment, O: lambsquarters (lambsquarters [25]): 1 (Herbicidal rate of 5% or more and less than 20%)
herbicidal effect on N: redroot pigweed (evaluation grade 0-5) (redroot pigweed [10]; [27]): 4 (Herbicidal rate of 70% or more and less than 90%)
herbicidal effect on G: green foxtail (evaluation grade 0-5) (green foxtail [12]; [27]): 0 (Herbicidal rate of 5% or less (almost no effect))
herbicidal effect rating, C: oval-leafed pondweed (oval-leafed pondweed [13]): 0 (Herbicidal rate of 5% or less (almost no effect))
Herbicidal effect by soil treatment, G: green foxtail (green foxtail [14]): 0 (Herbicidal rate of 5% or less (almost no effect))
herbicidal effect on F: southern crabgrass (evaluation grade 0-5) (southern crabgrass [15]; [27]): 0 (Herbicidal rate of 5% or less (almost no effect))
herbicidal effect rating, B: Japanese bulrush (Japanese bulrush [16]): 0 (Herbicidal rate of 5% or less (almost no effect))
Herbicidal effect by soil treatment, H: barnyard grass (barnyard grass [17]): 0 (Herbicidal rate of 5% or less (almost no effect))
herbicidal effect on rice flat sedge (E) (rice flat sedge): 0 (Herbicidal rate of 5% or less (almost no effect))
Herbicidal effect by soil treatment, F: southern crabgrass (southern crabgrass [19]): 0 (Herbicidal rate of 5% or less (almost no effect))
Herbicidal effect by soil treatment, M: velvetleaf (velvetleaf [23]): 0 (Herbicidal rate of 5% or less (almost no effect))
